Experimental data taken from US20160045505A1, “COMPOUNDS AND COMPOSITIONS FOR THE TREATMENT OF PARASITIC DISEASES” (NOVARTIS AG, priority 2013, published 2016).

Tests used:
[1] = system: L. donovani HU3 strain in mouse peritoneal macrophages; test: Assay for proliferation of Leishmania parasites in infected mouse peritoneal macrophages (SybrGreen staining, high-content imaging, 5 days); format: cell-based, Leishmania donovani; details: Leishmania donovani, Peritoneal macrophage, L. donovani in mouse peritoneal macrophages, inhibition of proliferation; read-out: L. donovani Macrophage EC50
[2] = system: Trypanosoma cruzi amastigotes (Tulahuen strain expressing Lac-Z) cultured in 3T3 fibroblast cells; test: microbe, parasite or virus in culture; format: cell-based; details: Trypanosoma cruzi, TULAHUEN, Fibroblast, T. cruzi amastigotes in 3T3 fibroblast cells, inhibition of proliferation; read-out: T cruzi EC50
[3] = system: Trypanosoma brucei Lister 427 strain, bloodstream form; test: Assay for proliferation of kinetoplastid parasite Trypanosoma brucei (Cell Titer Glo, 48 hours); format: cell-based; details: Trypanosoma brucei, T. brucei Lister 427 bloodstream form, inhibition of proliferation; read-out: T. brucei EC50
In short: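 Bloodstream-form T. brucei Lister 427 in HMI-9 medium was exposed to compound (DMSO vehicle) for 48 hours at 37° C, 5% CO2. Parasite growth was read as ATP by CellTiter-Glo luminescence, with EC50 calculated from percent inhibition.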

[4] = system: Leishmania donovani axenic amastigote parasites; test: Leishmania donovani axenic amastigote proliferation assay (Cell TiterGlo luminescence, 2 day incubation); format: cell-based; details: Leishmania donovani, axenic amastigotes, inhibition of proliferation; read-out: L. donovani amastigotes EC50

Row | Structure (SMILES) | EC50 [1] [nM] | EC50 [2] [nM] | EC50 [3] [nM] | EC50 [4] [nM]
1 | CCOC(=O)Nc1cnc2nc(-c3cc(NC(=O)c4oc(C)nc4C)ccc3F)cn2c1 [Compound 305] | 269 | 499 | 163 | 112
2 | Cc1nc(C)c(C(=O)Nc2ccc(F)c(-c3cn4cc(NC(=O)OC5CCCC5)cnc4n3)c2)o1 [Compound 306] | 835 | 673 | 360 | 315
3 | Cc1nc(C)c(C(=O)Nc2ccc(F)c(-c3cn4cc(NC(=O)OCCF)cnc4n3)c2)o1 [Compound 307] | 428 | 2540 | 356 | 249
4 | Cc1nc(C)c(C(=O)Nc2ccc(F)c(-c3cn4cc(NC(=O)OCC(C)C)cnc4n3)c2)o1 [Compound 308] | 338 | 329 | 131 | 211
5 | CCC(C)OC(=O)Nc1cnc2nc(-c3cc(NC(=O)c4oc(C)nc4C)ccc3F)cn2c1 (stereo not shown) [Compound 309] | 204 | 275 | 132 | 109
6 | COC(=O)Nc1cnc2nc(-c3cc(NC(=O)c4oc(C)nc4C)ccc3F)cn2c1 [Compound 310] | 564 | 1240 | 293 | 243
7 | C=C(C)OC(=O)Nc1cnc2nc(-c3cc(NC(=O)c4oc(C)nc4C)ccc3F)cn2c1 [Compound 311] | 12000 | 5580 | 1670 | 162
8 | Cc1nc(C)c(C(=O)Nc2ccc(F)c(-c3cn4cc(NC(=O)OC5(C)CC5)cnc4n3)c2)o1 [Compound 312] | 139 | 441 | 54 | 120
9 | COCCOC(=O)Nc1cnc2nc(-c3cc(NC(=O)N4CCCC4)ccc3F)cn2c1 [Compound 313] | > 50000 | 13300 | 502 | 761
10 | CC(C)OC(=O)Nc1ccc(F)c(-c2cn3cc(-c4ccccn4)cnc3n2)c1 [Compound 314] | 95 | 15 | 51 | 46
11 | Cc1nc(C)c(C(=O)Nc2ccc(F)c(-c3cn4cc(NS(=O)(=O)C(C)C)cnc4n3)c2)o1 [Compound 315, N-(4-fluoro-3-(6-(1-methylethylsulfonamido)imidazo[1,2-a]pyrimidin-2-yl)phenyl)-2,4-dimethyloxazole-5-carboxamide] | 19100 | > 19800 | 4410 | 2520
12 | O=C(Nc1ccc(F)c(-c2cn3cc(-c4ccccc4)cnc3n2)c1)N1CC(F)C1 [Compound 317, 3-fluoro-N-(4-fluoro-3-(6-phenylimidazo[1,2-a]pyrimidin-2-yl)phenyl)azetidine-1-carboxamide] | 38 | 12 | 12 | 14
13 | O=C(Nc1ccc(F)c(-c2cn3cc(C4=CCOCC4)cnc3n2)c1)N1CC(F)C1 [Compound 318] | 132 | 146 | 19 | 31
14 | O=C(Nc1ccc(F)c(-c2cn3cc(-c4ccccc4)cnc3n2)c1)N1CC(F)(F)C1 [Compound 319] | 102 | 20 | 20 | 33
15 | O=C(Nc1ccc(F)c(-c2cn3cc(C4=CCOCC4)cnc3n2)c1)N1CC(F)(F)C1 [Compound 320] | 180 | 186 | 35 | 58
16 | O=C(Nc1ccc(F)c(-c2cn3cc(C4=CCOCC4)cnc3n2)c1)N1CCC1 [Compound 322] | 157 | 76 | 20 | 43
17 | CN(C)C(=O)Nc1ccc(F)c(-c2cn3cc(-c4ccccc4)cnc3n2)c1 [Compound 323] | 278 | 46 | 47 | 97

Row | Structure (SMILES) | EC50 [1] [nM] | EC50 [2] [nM] | EC50 [3] [nM] | EC50 [4] [nM]
18 | CN(C)C(=O)Nc1ccc(F)c(-c2cn3cc(C4=CCOCC4)cnc3n2)c1 [Compound 324] | 1570 | 253 | 47 | 288
19 | CCN(C)C(=O)Nc1ccc(F)c(-c2cn3cc(-c4ccccc4)cnc3n2)c1 [Compound 327] | 459 | 50 | 102 | 167
20 | CCN(C)C(=O)Nc1ccc(F)c(-c2cn3cc(C4=CCOCC4)cnc3n2)c1 [Compound 328] | 1500 | 302 | 167 | 387
21 | Cc1ncc(C(=O)Nc2ccc(F)c(-c3cn4cc(-c5ccccc5)cnc4n3)c2)o1 [Compound 329] | 57 | 7 | 55 | 26
22 | Cc1ncc(C(=O)Nc2ccc(F)c(-c3cn4cc(C5=CCOCC5)cnc4n3)c2)o1 [Compound 330] | 114 | 104 | 36 | 28
23 | CC(C)OC(=O)Nc1ccc(F)c(-c2cn3cc(-c4ccccc4)cnc3n2)c1 [Compound 331] | 360 | 53 | 116 | 396
24 | CC(C)OC(=O)Nc1ccc(F)c(-c2cn3cc(C4=CCOCC4)cnc3n2)c1 [Compound 332] | 592 | 134 | 124 | 166
25 | Cc1nc(C)c(C(=O)Nc2cccc(-c3cn4cc(C5=CCOCC5)cnc4n3)c2)o1 [Compound 335] | 521 | 407 | 114 | 178
26 | Cc1nc(C)c(C(=O)Nc2cccc(-c3cn4cc(-c5ccccc5)cnc4n3)c2)o1 [Compound 336] | 168 | 45 | 86 | 74
27 | O=C(Nc1cccc(-c2cn3cc(-c4ccccc4)cnc3n2)c1)N1CC[C@@H](F)C1 [Compound 337] | 195 | 68 | 24 | 72
28 | Cc1nc(C)c(C(=O)Nc2ccc(F)c(-c3nc4ncc(-c5ccccc5)cn4c3F)c2)o1 [Compound 338] | 101 | 18 | 40 | 47
29 | Nc1cc(-c2cnc3nc(-c4cc(NC(=O)N5CCCC5)ccc4F)cn3c2)ccn1 [Compound 342] | 14600 | 9360 | 364 | 2140
30 | CC(C)(C)OC(=O)N1CCC(Oc2ccc(-c3cnc4nc(-c5cc(NC(=O)N6CCCC6)ccc5Cl)cn4c3)cc2)CC1 [Compound 345] | 955 | 408 | 527 | 251
31 | Cc1nc(C)c(C(=O)Nc2ccc(F)c(-c3cn4cc(-c5ccc(CCN6CCOCC6)cc5)cnc4n3)c2)o1 [Compound 348] | 1030 | 41 | 165 | 341
32 | Cc1nc(C)c(C(=O)Nc2ccc(F)c(-c3cn4cc(-c5ccc(CCO)cc5)cnc4n3)c2)o1 [Compound 349] | 672 | 180 | 69 | 74
33 | O=C(Nc1ccc(F)c(-c2cn3cc(C4=CCCC4)cnc3n2)c1)N1CCCC1 [Compound 354] | 103 | 8 | 4 | 26
34 | Cn1cnc(-c2cnc3nc(-c4cc(NC(=O)N5CCCC5)ccc4F)cn3c2)c1 [Compound 355] | 521 | 1140 | 86 | 97
